Reference: patent US6444696B1, “Pyrazole derivatives P38 MAP kinase inhibitors” (Syntex (U.S.A.) LLC, priority 1998, dated 2002)

Key:
p38 MAP kinase = molecular target: T1, p38 MAP kinase (Homo sapiens, UniProt Q16539); test: Inhibition of p-38 (MAP) kinase, in vitro assay (transfer of γ-33P from ATP to Myelin Basic Protein); type: biochemical; conditions: phosphorylated recombinant p38 MAP kinase, MBP substrate, γ-33P-ATP, 30° C.; read-out: IC50, μM (p-38 inhibitory activity)
T1 construct: made in house; host or cells: E. coli (co-expressed with SEK-1 and MEKK to obtain the phosphorylated form)
Procedure: The p-38 MAP kinase inhibitory activity of compounds of this invention in vitro was determined by measuring the transfer of the γ-phosphate from γ-^33P-ATP by p-38 kinase to Myelin Basic Protein (MBP), using the a minor modification of the method described in Ahn, N. G.; et al. J. Biol. Chem. Vol. 266(7), 4220-4227, (1991).
The phosphorylated form of the recombinant p38 MAP kinase was expressed with SEK-1 and MEKK in E. Coli and then purified by affinity chromatography using a Nickel column.
The phosphorylated p38 MAP kinase was diluted in kinase buffer (20 mM 3-(N-morpholino)propanesulfonic acid, pH 7.2, 25 mM β-glycerol phosphate, 5 mM ethylene glycol-bis(beta-aminoethyl ether)-N,N,N′,N′-tetraacetic acid, 1 mM sodium vanadate, 1 mM dithiothreitol, 40 mM magnesium chloride). Test compound dissolved in DMSO or only DMSO (control) was added and the samples were incubated for 10 min at 30° C. The kinase reaction was initiated by the addition of a substrate cocktail containing MBP and γ-^33P-ATP. After incubating for an additional 20 min at 30° C., the reaction was terminated by adding 0.75% phosphoric acid. The phosphorylated MBP was then separated from the residual γ-^33P-ATP using a phosphocellulose membrane (Millipore, Bedford, Mass.) and quantitated using a scintillation counter (Packard, Meriden, Conn.).
Compounds of the invention were active in this assay.

[1] = test system: TNF-α Production In THP 1 Cells; test: Inhibition of LPS-induced TNF-α production in THP-1 cells, in vitro assay (ELISA); type: cell-based; conditions: Homo sapiens, LPS 0.5 μg/ml, 2 h, TNF-α by ELISA, read-out: IC50, μM (inhibition of TNF-α release)
Procedure: The ability of the compounds of this invention to inhibit the TNF-α release was determined using a minor modification of the methods described in described in Blifeld, C. et al. Transplantation, Vol. 51(2), 498-503, (1991).
THP-1 cells were suspended in culture medium [RPMI (Gibco-BRL, Gailthersburg, Md.) containing 15% fetal bovine serum, 0.02 mM 2-mercaptoethanol], at a concentration of 2.5×10^6 cells/ml and then plated in 96 well plate (0.2 ml aliquots in each well). Test compounds were dissolved in DMSO and then diluted with the culture medium such that the final DMSO concentration was […]. 20 μl aliquots of test solution or only medium with DMSO (control) were added to each well. The cells were incubated for 30 min., at 37° C. LPS (Sigma, St. Louis, Mo.) was added to the wells at a final concentration of 0.5 μg/ml, and cells were incubated for an additional 2 h. At the end of the incubation period, culture supernatants were collected and the amount of TNF-α present was determined using an ELISA assay as described below.
The amount of human TNF-α present was determined by a specific trapping ELISA assay using two anti-TNF-α antibodies (2TNF-H22 and 2TNF-H34) described in Reimund, J. M., et al. GUT. Vol. 39(5), 684-689 (1996).
Polystyrene 96-well plates were coated with 50 μl per well of antibody 2TNF-H22 in PBS (10 μg/ml) and incubated in a humidified chamber at 4° C. overnight. The plates were washed with PBS and then blocked with 5% nonfat-dry milk in PBS for 1 hour at room temperature and washed with 0.1% BSA (bovine serum albumin) in PBS.
TNF standards were prepared from a stock solution of human recombinant TNF-α (R&D Systems, Minneapolis, Minn.). The concentration of the standards in the assay began at 10 ng/ml followed by 6 half log serial dilution's.
25 μl aliquots of the above culture supernatants or TNF standards or only medium (control) were mixed with 25 μl aliquots of biotinylated monoclonal antibody 2TNF-H34 (2 μg/ml in PBS containing 0.1% BSA) and then added to each well. The samples were incubated for 2 h at room temperature with gentle shaking and then washed 3 times with 0.1% BSA in PBS. 50 μl of peroxidase-streptavidin (Zymed, S. San Francisco, Calif.) solution containing 0.416 μg/ml of peroxidase-streptavidin and 0.1% BSA in PBS was added to each well. The samples were incubated for an additional 1 h at room temperature and then washed 4 times with 0.1% BSA in PBS. 50 μl of O-phenylenediamine solution (1 μg/ml O-phenylene-diamine and 0.03% hydrogen peroxide in 0.2M citrate buffer pH 4.5) was added to each well and the samples were incubated in the dark for 30 min., at room temperature. Optical density of the sample and the reference were read at 450 nm and 650 nm, respectively. TNF-α levels were determined from a graph relating the optical density at 450 nm to the concentration used.
The IC50 value was defined as the concentration of the test compound corresponding to half-maximal reduction in 450 nm absorbance. Compounds of the invention were active in this assay. The activity of selected compounds is shown below.

TNF-α Production In Rats = test: Inhibition of LPS-induced TNF-α production in rats, in vivo assay; parameters: species or system rat; conditions: dosed orally at 30 mg, LPS 50 μg/kg intraperitoneally after 30 min, serum TNF-α 1.5 h later
Procedure: The ability of the compounds of this invention to inhibit the TNF-α release, in vivo, was determined using a minor modification of the methods described in described in Zanetti, G.; Heumann, D., et. al. “Cytokine production after intravenous or peritoneal Gram-negative bacterial challenge in mice,” J. Immunol., 148, 1890, (1992) and Sekut, L., Menius, J. A., et. al., “Evaluation of the significance of elevated levels of systemic and localized tumor necrosis factor in different animal models of inflammation,” J. Lab. Clin. Med., 124, 813, (1994).
Female Sprague-Dawley rats weighing 110-140 grams (Charles River, Hollister, Calif.) were acclimated for one week. Groups containing 8 […] each were dosed orally either with the test compounds dissolved in an aqueous vehicle containing 0.9% sodium chloride, 0.5% sodium carboxymethyl-cellulose, 0.4% polysorbate 80, 0.9% benzyl alcohol (CMC vehicle) or only vehicle (control group). After 30 min., the mice were injected intraperitoneally with 50 μg/kg of LPS (Sigma, St. Louis, Mo.). After 1.5 h, the mice were sacrificed by CO2 inhalation and blood was harvested by cardiocentesis. Blood was clarified by centrifugation at 15,600×g for 5 min., and sera were transferred to clean tubes and frozen at −20° C. until analyzed for TNF-α by ELISA assay (Biosource International, Camarillo, Calif.) following the manufacturer's protocol. […]

T1 sequence (Q16539 whole entry): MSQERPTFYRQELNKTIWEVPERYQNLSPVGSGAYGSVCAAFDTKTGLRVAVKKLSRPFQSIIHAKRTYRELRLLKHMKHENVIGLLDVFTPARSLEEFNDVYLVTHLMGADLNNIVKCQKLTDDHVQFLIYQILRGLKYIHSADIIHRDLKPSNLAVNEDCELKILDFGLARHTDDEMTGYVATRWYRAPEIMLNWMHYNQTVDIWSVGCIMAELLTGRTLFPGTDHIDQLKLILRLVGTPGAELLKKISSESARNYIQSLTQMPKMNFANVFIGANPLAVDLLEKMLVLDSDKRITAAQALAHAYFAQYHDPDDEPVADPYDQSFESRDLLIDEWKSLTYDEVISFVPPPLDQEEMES

SMILES	IC50 (p38 MAP kinase) [µM]	IC50 [1] [µM]	melting point [°C]	% Inhibition (TNF-α content in test group relative to vehicle treated group) (TNF-α Production In Rats) [%]
Nc1c(C(=O)c2ccc(CCCO)cc2)cnn1-c1ccccc1 [compound 1]	1.81	1.77	148 to 152.5	–
Nc1c(C(=O)c2ccc(C=CCN3CCOCC3)cc2)cnn1-c1ccc(F)cc1 [compound 2]	3.29	6.3	166.7 to 168.2	–
Nc1c(C(=O)c2cccc(C=CCN3CCOCC3)c2)cnn1-c1ccc(F)cc1 [compound 4]	6.18	1.26	161.6 to 162.8	–
CN1CCN(CC#Cc2cccc(C(=O)c3cnn(-c4ccc(F)cc4)c3N)c2)CC1.Cl.Cl [compound 8, 5-amino-1-(4-fluorophenyl)-4-{3-[3-(4-methylpiperazin-1-yl)prop-1-ynyl]benzoyl}pyrazole.2HCl]	–	–	–	86
Nc1c(C(=O)c2cccc(C=CS(N)(=O)=O)c2)cnn1-c1ccc(F)cc1 [compound 10, 5-amino-4-[3-(2-aminosulfonylethenyl)benzoyl]-1-(4-fluorophenyl)pyrazole]	–	1.62	–	–
Nc1c(C(=O)c2cccc(OCCN3CCOCC3)c2)cnn1-c1ccc(F)cc1 [compound 13, 5-amino-1-(4-fluorophenyl)-4-[3-(2-morpholin-4-ylethoxy)benzoyl]pyrazole]	–	0.77	–	–
Nc1c(C(=O)c2cccc(OCCCN3CCCCC3)c2)cnn1-c1ccc(F)cc1 [compound 21]	2.18	0.61	–	–
N#CCCCOc1cccc(C(=O)c2cnn(-c3ccc(F)cc3)c2N)c1 [compound 27]	2.72	0.83	–	–
Nc1c(C(=O)c2cccc(N3CCC(Cc4ccccc4)CC3)c2)cnn1-c1ccc(F)cc1 [compound 33]	1.12	0.14	156.2 to 160.9	–
CN1CCN(C(=O)COc2cccc(C(=O)c3cnn(-c4ccc(F)cc4)c3N)c2)CC1 [compound 38]	6.31	0.69	–	–
Nc1cccc(C(=O)c2cnn(-c3ccc(F)cc3)c2N)c1 [compound 43, 5-amino-4-(3-aminobenzoyl)-1-(4-fluorophenyl)pyrazole]	6.52	0.17	165.2 to 165.8	–
